According to patent US9981940B2, “Aryl sulfide derivatives and aryl sulfoxide derivatives as acaricides and insecticides” (BAYER CROPSCIENCE AKTIENGESELLSCHAFT, priority 2013, dated 2018):

Experiments:
[1] = log P by HPLC (OECD Guideline 117), method [b] neutral range; type: physicochemical; settings: HPLC; for logP[b]: method [b] neutral range; for chromatographic logP: reversed-phase C18 HPLC column, neutral range, pH 7.8
Protocol: (§1) The log P values were determined analogously to OECD Guideline 117 (EC Directive 92/69/EEC) by HPLC (high-performance liquid chromatography) using reversed-phase columns (C 18), by the following methods:
[b] The LC-MS determination in the neutral range is effected at pH 7.8 with 0.001 molar aqueous ammonium hydrogencarbonate solution and acetonitrile as eluents; linear gradient from 10% acetonitrile to 95% acetonitrile.

[2] = log P by HPLC (OECD Guideline 117), method [a] acidic range; type: physicochemical; settings: for logP[a]: HPLC, method [a] acidic range; for chromatographic logP: reversed-phase C18 HPLC column, acidic range
Protocol: as §1
[a] The LC-MS determination in the acidic range is effected at pH 2.7 with 0.1% aqueous formic acid and acetonitrile (contains 0.1% formic acid) as eluents; linear gradient from 10% acetonitrile to 95% acetonitrile.

Tetranychus urticae = Tetranychus urticae spray test, OP-resistant (TETRUR); type: in vivo; settings: after 6 days; for pest or weed control at 500 g/ha: Tetranychus urticae, 144 h, read-out: efficacy
Procedure, shortened: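 Bean leaf discs infested with all stages of an OP-resistant Tetranychus urticae strain sprayed with compound in acetone/DMF with alkylaryl polyglycol ether emulsifier, diluted in water. Efficacy in % scored after 6 days; 100% means all mites killed.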

[3] = pH 2.7, HPLC method [a], read-out: logP[a]
[4] = pH 2.7, HPLC, pH 2.7, read-out: log P[a]

Row | Compound | logP[b] [1] | logP[a] [2] | chromatographic logP [1] | chromatographic logP [2, 3] | chromatographic logP [2, 4] | efficacy (Tetranychus urticae; application rate of 500 g/ha) [%] | efficacy (Tetranychus urticae; application rate of 100 g/ha) [%] | pest or weed control at 500 g/ha (Tetranychus urticae; application rate of 500 g/ha) [%]
1 | Cc1cc(F)c(-n2nc(SCc3ccccc3)n(C)c2=O)cc1[S+]([O-])CC(F)(F)F (racemic) [Example 287] | 3.02 | 3.08 | – | – | – | 100 | – | –
2 | Cc1cc(F)c(-n2nc(-c3cccc(F)c3)n(C3CC3)c2=O)cc1[S+]([O-])CC(F)(F)F (racemic) [Example 70] | 2.87 | 2.94 | – | – | – | 90 | – | –
3 | Cc1cc(F)c(-n2nc(C3CC3)n(C)c2=O)cc1[S+]([O-])CC(F)(F)F (racemic) [Example 352] | 1.96 | 1.99 | – | – | – | 90 | – | –
4 | Cc1cc(F)c(-n2nc(C(F)(F)F)n(CC(F)(F)F)c2=O)cc1[S+]([O-])CC(F)(F)F (centres unmarked) [Example 56] | 3.09 | 3.20 | – | – | – | – | 90 | –
5 | Cc1cc(F)c(-n2nc([S+]([O-])CC(F)F)n(C3CC3)c2=O)cc1[S+]([O-])CC(F)(F)F (centres unmarked) [Example 229] | 2.07 | 2.10 | – | – | – | 90 | – | –
6 | Cc1ccc(-n2nc(OCc3ccccc3)n(C)c2=O)cc1[S+]([O-])CC(F)(F)F (centres unmarked) [Example 178] | 3.18 | 3.23 | – | – | – | 90 | – | –
7 | CCSc1nn(-c2cc(SCC(F)(F)F)c(C)cc2F)c(=O)n1C [Example 273, 5-(Ethylsulphanyl)-2-{2-fluoro-4-methyl-5-[(2,2,2-trifluoroethyl)sulphanyl]phenyl}-4-methyl-2,4-dihydro-3H-1,2,4-triazol-3-one] | – | – | 3.44 | 3.51 | 3.51 | – | – | 100
8 | Cc1cc(F)c(-n2ncn(-c3ccccc3)c2=O)cc1[S+]([O-])CC(F)(F)F (racemic) [Example 357] | 2.36 | 2.38 | – | – | – | 90 | – | –
9 | Cc1cc(C)c(-n2nnn(C(C)C)c2=O)cc1SCC(F)(F)F [Example 298] | 3.78 | 3.81 | – | – | – | 100 | – | –
10 | Cc1cc(F)c(-n2nc(C3CCCC3)n(C3CC3)c2=O)cc1SCC(F)(F)F [Example 358, 5-Cyclopentyl-4-cyclopropyl-2-{2-fluoro-4-methyl-5-[(2,2,2-trifluoroethyl)sulphanyl]phenyl}-2,4-dihydro-3H-1,2,4-triazol-3-one] | – | – | 4.2 | 4.18 | 4.18 | – | – | 100
11 | COc1nn(-c2ccc(C(F)(F)F)c(SCC(F)(F)F)c2)c(=O)n1C1CC1 [Example 144] | 3.85 | 4.14 | – | – | – | 90 | – | –
12 | CNn1cnn(-c2cc(SCC(F)(F)F)c(C)cc2F)c1=O [Example 203] | 2.27 | 2.32 | – | – | – | 100 | – | –
13 | CCn1c(C(F)(F)F)nn(-c2cc(SCC(F)(F)F)c(C)cc2F)c1=O [Example 57] | 3.88 | 3.96 | – | – | – | 90 | – | –
14 | Cc1cc(F)c(-n2nc([S+](C)[O-])n(C)c2=O)cc1[S+]([O-])CC(F)(F)F (centres unmarked) [Example 233] | 1.44 | 1.47 | – | – | – | 100 | – | –
15 | C=CCn1c(SC(C)C)nn(-c2cc([S+]([O-])CC(F)(F)F)c(C)cc2F)c1=O (racemic) [Example 285] | 3.17 | 3.24 | – | – | – | 100 | – | –
16 | CCCCOc1nn(-c2cc(SCC(F)(F)F)c(C)cc2F)c(=O)n1C [Example 128] | 3.95 | 4.11 | – | – | – | 90 | – | –
17 | CCn1c(OC)nn(-c2cc(SCC(F)(F)F)c(C)cc2F)c1=O [Example 180] | 3.10 | 3.16 | – | – | – | 100 | – | –
18 | Cc1cc(F)c(-n2ncn(C(C)C)c2=O)cc1[S+]([O-])CC(F)(F)F (centres unmarked) [Example 6, 2-{2-Fluoro-4-methyl-5-[(2,2,2-trifluoroethyl)sulphinyl]phenyl}-4-isopropyl-2,4-dihydro-3H-1,2,4-triazol-3-one] | – | – | 2.02 | 1.88 | 1.88 | – | – | 80
19 | C=CCn1c(OC)nn(-c2cc(SCC(F)(F)F)c(C)cc2F)c1=O [Example 182] | 3.24 | 3.30 | – | – | – | 100 | – | –
20 | CCOc1nn(-c2cc([S+]([O-])CC(F)(F)F)c(C)cc2F)c(=O)n1C (centres unmarked) [Example 131] | 2.09 | 2.13 | – | – | – | 90 | – | –
21 | Cc1cc(F)c(-n2nc(C(C)(C)C)n(C3CC3)c2=O)cc1SCC(F)(F)F [Example 63] | 4.11 | 4.17 | – | – | – | 100 | – | –
22 | CCCOc1nn(-c2ccc(C)c(SCC(F)(F)F)c2)c(=O)n1C1CC1 [Example 123] | 4.57 | 4.66 | – | – | – | 100 | – | –
23 | Cc1cc(F)c(-n2nc(N(C)C)n(N)c2=O)cc1SCC(F)(F)F [Example 220] | 2.48 | 2.51 | – | – | – | 90 | – | –
24 | Cc1cc(F)c(-n2nc(Oc3ccccc3)n(C)c2=O)cc1[S+]([O-])CC(F)(F)F (centres unmarked) [Example 159] | 2.65 | 2.70 | – | – | – | 100 | – | –
25 | O=c1n(-c2cc(SCC(F)(F)F)c(Cl)cc2Cl)nc(OCC(F)(F)F)n1C1CC1 [Example 185] | 4.10 | 4.14 | – | – | – | 90 | – | –
26 | CSc1nn(-c2cc(SCC(F)(F)F)c(C)cc2F)c(=O)n1C1CC1 [Example 259] | 3.60 | 3.56 | – | – | – | 100 | – | –
27 | C=CCSc1nn(-c2cc([S+]([O-])CC(F)(F)F)c(C)cc2F)c(=O)n1C (racemic) [Example 291] | 2.51 | 2.55 | – | – | – | 100 | – | –
28 | Cc1cc(F)c(-n2nnn(-c3ccc(Cl)cc3)c2=O)cc1[S+]([O-])CC(F)(F)F (centres unmarked) [Example 307, 1-(4-Chlorophenyl)-4-{2-fluoro-4-methyl-5-[(2,2,2-trifluoroethyl)sulphinyl]phenyl}-1,4-dihydro-5H-tetrazol-5-one] | – | – | 3.49 | 3.53 | 3.53 | – | – | 100
29 | Cc1cc(F)c(-n2nc(C(F)(F)F)n(CC(F)(F)F)c2=O)cc1SCC(F)(F)F [Example 55] | 4.11 | 4.22 | – | – | – | 90 | – | –
30 | CCSc1nn(-c2cc([S+]([O-])CC(F)(F)F)c(C)cc2F)c(=O)n1CC (racemic) [Example 293] | 2.72 | 2.76 | – | – | – | 90 | – | –

Second part, led by results:

Row | logP[b] [1] | logP[a] [2] | chromatographic logP [1] | chromatographic logP [2, 3] | chromatographic logP [2, 4] | Compound | efficacy (Tetranychus urticae; application rate of 500 g/ha) [%] | efficacy (Tetranychus urticae; application rate of 100 g/ha) [%] | pest or weed control at 500 g/ha (Tetranychus urticae; application rate of 500 g/ha) [%]
31 | 4.43 | 4.52 | – | – | – | CCCCc1nn(-c2cc(SCC(F)(F)F)c(C)cc2F)c(=S)n1C1CC1 [Example 495] | 100 | – | –
32 | 2.40 | 2.44 | – | – | – | COc1nn(-c2cc([S+]([O-])CC(F)(F)F)c(C)cc2F)c(=O)n1C(C)C (centres unmarked) [Example 413] | 90 | – | –
33 | 2.83 | 2.85 | – | – | – | Cc1cc(F)c(-n2ncoc2=O)cc1SCC(F)(F)F [Example 454] | 90 | – | –
34 | 2.28 | 2.34 | – | – | – | Cc1cc(C)c([S+]([O-])CC(F)(F)F)cc1-n1ncn(C(C)(C)C)c1=O (centres unmarked) [Example 372] | 100 | – | –
35 | 3.18 | 3.22 | – | – | – | Cc1cc(F)c(-n2nc(C(F)(F)F)n(C(C)C)c2=O)cc1[S+]([O-])CC(F)(F)F (centres unmarked) [Example 363] | 100 | – | –
36 | 3.23 | 3.27 | – | – | – | Cc1cc(F)c(-n2ncn(C(C)(C)C)c2=O)cc1SCC(F)(F)F [Example 367] | 100 | – | –
37 | 4.01 | 4.10 | – | – | – | C=CCSc1nn(-c2cc(SCC(F)(F)F)c(C)cc2F)c(=O)n1C1CC1 [Example 425] | 100 | – | –
38 | – | – | 2.79 | 2.84 | 2.84 | CCn1ccn(-c2cc(SCC(F)(F)F)c(C)cc2F)c1=O [Example 486, 1-Ethyl-3-{2-fluoro-4-methyl-5-[(2,2,2-trifluoroethyl)sulphanyl]phenyl}-1,3-dihydro-2H-imidazol-2-one] | – | – | 100
39 | 3.70 | 3.74 | – | – | – | C=CCOc1nn(-c2cc(SCC(F)(F)F)c(C)cc2F)c(=O)n1C1CC1 [Example 375] | 100 | – | –
40 | 2.36 | 2.35 | – | – | – | Cc1cc(F)c(-n2ncn(Cc3ccccc3)c2=O)cc1[S+]([O-])CC(F)(F)F (centres unmarked) [Example 370] | 100 | – | –
41 | 2.21 | 2.25 | – | – | – | Cc1cc(F)c(-n2nc(C(C)C)n(N)c2=O)cc1S(=O)(=O)CC(F)(F)F [Example 417] | 100 | – | –
42 | 3.26 | 3.27 | – | – | – | O=c1n(-c2cc([S+]([O-])CC(F)(F)F)c(Br)cc2F)nc(OCC(F)(F)F)n1C1CC1 (racemic) [Example 383] | 100 | – | –
43 | 3.34 | 3.38 | – | – | – | Cc1cc(F)c(-n2ncn(Cc3ccccc3)c2=O)cc1SCC(F)(F)F [Example 368] | 100 | – | –
